# In paper PMC5546207 (Cancer discovery, 2017):
# Like-named read-outs stand apart in the source and are kept apart here.
# Legend:
# [1] = system: patients; conditions: cited from earlier work; for incidence of hyperglycemia: single agent
# [2] = Plasma pharmacokinetics; type: in vivo, human; conditions: for AUC / Cmax / Tmax: human, plasma, oral; for AUC: AUCtau [mean ± standard deviation]; for Cmax: Cmax [mean ± standard deviation]; for Tmax: Tmax [median (range)]
# [3] = 200 mg encorafenib at steady state, dual combination
# [4] = 200 mg encorafenib in the presence of 300 mg alpelisib, steady state, triple combination
# [5] = 300 mg alpelisib at steady state, triple combination
SMILES,single agent MTD/RP2D ([1]; first-in-human study) [mg],exposure vs dual-combination therapy group ([2]; 200 mg encorafenib in the presence of 100 mg alpelisib),drug–drug interaction between encorafenib and cetuximab ([2]; dual-combination therapy group),"AUC [2, 3] [ng·h/mL]","AUC [2, 4] [ng·h/mL]","Cmax [2, 3] [ng/mL]","Cmax [2, 4] [ng/mL]","Tmax [2, 3] [h]","Tmax [2, 4] [h]","incidence of hyperglycemia ([1]; all grade, patients with solid tumors) [%]","incidence of hyperglycemia ([1]; grade 3/4, patients with solid tumors) [%]","AUC [2, 5] [ng·h/mL]","Cmax [2, 5] [ng/mL]",exposure affected by encorafenib and cetuximab ([2]; triple-combination therapy group)
COC(=O)N[C@@H](C)CNc1nccc(-c2cn(C(C)C)nc2-c2cc(Cl)cc(NS(C)(=O)=O)c2F)n1 [encorafenib],450,similar,No evidence of drug–drug interaction,7170 ± 2890,12900,1430 ± 824,2390 ± 2080,2,3,–,–,–,–,–
Cc1nc(NC(=O)N2CCC[C@H]2C(N)=O)sc1-c1ccnc(C(C)(C)C(F)(F)F)c1 [alpelisib],–,–,–,–,–,–,–,–,–,47,24,25100,2740 ± 520,not affected
